These results are taken from patent publication US5023082A, “Sustained-release pharmaceutical compositions” (Yissum Research Development Company of the Hebrew …, priority 1986, dated 1991).

The series can be described thus: Comparison of release rate of agents/salts from film-like implants. Type of series: physicochemical. The text has this:
The amount of the pharmacological agent added to the implant will vary, in a manner understood by those of ordinary skill in the art, depending upon such criteria as: […] The above criteria will depend upon such factors as the patient's age, height, weight, sex, medical history, etc. The pharmacological agent must be present in an amount sufficient to impart therapeutic effect to the pharmaceutical composition. The nature of the active agent in the implant also plays an important role in the control release mechanism. […] Different salts of the same active agent may be released at different rates.

Take `N=C(NCCCCCCNC(=N)NC(=N)Nc1ccc(Cl)cc1)NC(=N)Nc1ccc(Cl)cc1` [chlorhexidine acetate]: the “Release rate from film-like implant compared with tetracycline HCl” value (20% w/w per protein, same implant containing 20% w/w tetracycline HCl) is “more slowly”. Besides, the “Release rate from film-like implants compared with chlorhexidine HCl” value (same formulation, 20% (w/w) chlorhexidine per protein) was “more slowly”.
